Test results: US6649644B1, “Method of treating HIV infection by combined use of a cytotoxic agent and a non-nucleoside reverse transcriptase inhibitor” (priority 1998, dated 2003)
Where two headings read alike, the source gives them in different places.

How the values were obtained:
[1] = system: human T-lymphocytes (MT-2) infected with HIV-1; assay: Toxicity of compounds for HIV-1-infected MT-2 cells (MTT assay); details: for killing of infected cells relative to uninfected lymphocytes: after 24 hours, losoxantrone 10 nM, etoposide 100 nM
From the text: (§1) In order to test whether some external death stimuli, which are independent of bcl-2 (Reed, 1994), may not selectively kill HIV-infected cells, we exposed uninfected and HIV-infected cells to various chemical toxins, including losoxantrone, bisnafide, etoposide and hydroxyurea. […] Therefore, we proceeded to examine whether either losoxantrone or etoposide were able to selectively kill HIV-infected cells.
The concentration of the cytotoxic drugs losoxantrone, etoposide or hydroxyurea required to reduce cell viability by 50% (TC50) was determined with or without virus infection. Graded concentrations of drug in RPMI (5% FCS) were added to a 96-well microtiter plate. 1×10^e5 cells were added per well. Cell control wells contained cells in RPMI only. […] The tetrazolium dye (3-4,5-dimethylthiazol-2yl)-2,5-diphenyltetrazolium bromide (MTT) was used to assess the number of viable cells. […] Following a 2 hour incubation at 37° C., 150 μL was removed from each well and 200 μL of 0.04 N HCl in isopropanol was added. The contents of each well were mixed and the quantity of reduced dye was measured by absorbance at 570 nm. The concentration of compound producing a 50% reduction in signal relative to the untreated cultures (TC50) was determined.

HIV-1 (RF strain) [2] = type: cell-based; details: for HIV Replication (Day 4), p24: single agent, human PBMCs, Table 2; for changes in the level of HIV p24 after either 4 or 8 days: single agents at the concentrations of Table 2
Description: Freshly isolated human blood lymphocytes and monocytes were infected with HIV-1 (RF strain) and then incubated for an additional 3 days in the presence of compounds alone or in combinations or left untreated. At the end of 4 days, the infected cells were briefly centrifuged. The supernatant was collected and used to titer HIV p24, using an enzyme-linked immunosorbent assay (ELISA). The cell pellets were washed two times with medium lacking any inhibitors, and the washed human peripheral blood mononuclear cells (PBMCs) were mixed 1:1 with MT-2 lymphocytes and incubated for an additional 4 days absent any inhibitors. All cells were then removed by centrifugation and the supernatant was again assayed for p24 levels by ELISA.
Viral p24 produced by HIV-1 (RF) infected cells was quantified to determine the effects of a cytotoxic drug and efavirenz alone or in combination. On day one, 5.25×10^e6 donor PBMCs (stimulated by PHA/IL-2 for 72 hours in RPMI tissue culture medium were centrifuged at 1,000 rpm for 10 minutes and the supernatant fluid was decanted. Using 50% tissue culture infectious dose (TCID50) estimated from the viral stock titration procedure (PRR 97-04), 5.25×10^6 PBMCs were infected with 5.2×10^3 TCID50 of virus (M. O. I. ˜0.001). Cells were resuspended, the virus stock added, and incubated at 37° C. for one hour. RPMI was added to the infected PBMCs and unabsorbed virus in the supernatant fluid was removed following centrifugation. The cells were resuspended in 10 mL RPMI (20% FCS, 30 units IL-2/mL) and placed in a 25 cm^2 tissue culture flask. The virus control flask contained infected cells only. Similar flasks contained efavirenz or the cytotoxic drug added separately or in combination. Flasks were incubated at 37° C., in 5% CO2 for 3 days. On day 4, the contents of each flask were centrifuged and the supernatant, inactivated with 0.5% Triton X-100, was frozen at −70° C. for p24 analysis. The infected PBMCs were resuspended in RPMI, centrifuged again, and the supernatant discarded to remove residual drugs. The pellets were resuspended in each flask, and 1×10^e6 MT-2 cells were added. The final volume was 10 mL RPMI (5% FCS) per flask. After 4 more days of incubation (day 8), supernatant from each flask was inactivated with Triton X-100 and frozen at −70° C. The p24 antigen concentration of viral supernatants from days 4 and 8 was determined using the NEN Life Science Products HIV-1 p24 antigen capture assay.

[3] = Toxicity of compounds for uninfected MT-2 cells (MTT assay); details: human
From the text: as §1
(§2) The concentration of the cytotoxic drugs losoxantrone, etoposide or hydroxyurea required to reduce cell viability by 50% (TC50) was determined with or without virus infection. Graded concentrations of drug in RPMI (5% FCS) were added to a 96-well microtiter plate. 1×10^e5 cells were added per well. Cell control wells contained cells in RPMI only. Plates were incubated at 37° C., 5% CO2 for 3 days. The tetrazolium dye (3-4,5-dimethylthiazol-2yl)-2,5-diphenyltetrazolium bromide (MTT) was used to assess the number of viable cells. After the 3-day incubation period, 10 μL of MTT (5 mg/mL in 1×PBS) was added to each well. Following a 2 hour incubation at 37° C., 150 μL was removed from each well and 200 μL of 0.04 N HCl in isopropanol was added. The contents of each well were mixed and the quantity of reduced dye was measured by absorbance at 570 nm. The concentration of compound producing a 50% reduction in signal relative to the untreated cultures (TC50) was determined.

HIV-1 (RF strain) [4] = type: cell-based; details: for Infectious Centers (Day 8), p24: single agent, PBMCs washed, co-cultivated with MT-2, Table 2
[5] = system: human T-lymphocytes (MT-2); assay: Toxicity of compounds for uninfected MT-2 cells (MTT assay)
From the text: as §1, §2

PBMC = assay: Inhibition of PBMC cell division; type: cell-based, human; details: 100 μM
[6] = Homo sapiens, T-lymphocyte, read-out: Viable Cells (% Remaining) +HIV

| Compound | viability at 0.01 µM [1, 6] [%] | HIV Replication (Day 4), p24 (HIV-1 (RF strain) [2]; 10 nM) [pg/mL] | changes in the level of HIV p24 after either 4 or 8 days (HIV-1 (RF strain) [2]) | Infectious Centers (Day 8), p24 (HIV-1 (RF strain) [4]; 10 nM) [pg/mL] | killing of infected cells relative to uninfected lymphocytes [1] [fold] | also measured |
| --- | --- | --- | --- | --- | --- | --- |
| O=C1Nc2ccc(Cl)cc2[C@@](C#CC2CC2)(C(F)(F)F)O1 [efavirenz] | 82 | 15000 | only small changes | 200000 | – | viability at 24 h, 0.01 µM ([3]; uninfected MT-2 T-lymphocytes): 81% |
| COc1cc([C@@H]2c3cc4c(cc3[C@@H](O[C@@H]3O[C@@H]5CO[C@@H](C)O[C@H]5[C@H](O)[C@H]3O)[C@H]3COC(=O)[C@H]23)OCO4)cc(OC)c1O [etoposide] | – | – | – | – | 6 | viability at 0.1 µM [1, 6]: 12%; viability at 24 h, 0.1 µM [3]: 71%; p24 results when substituted for losoxantrone (HIV-1 (RF strain) [4]; compared with the losoxantrone results, not shown): very similar |
| O=C1c2c(O)cccc2-c2nn(CCNCCO)c3ccc(NCCNCCO)c1c23 [losoxantrone] | 4 | 200000 | only small changes | 700000 | 5 | range of concentrations that show selectivity for infected cells ([1]; cell survival, infected vs. control cells): 0.1 to 10 nM; increase in p24 titers (HIV-1 (RF strain) [2]; 10 nM, days 4 and 8): 3 to 7 fold; viability at 24 h, 0.01 µM [3]: 68%; concentration with evidence of substantial toxicity to uninfected cells [5]: ≥ 10 nM |
| Nc1cccc(CN2C(=O)N(Cc3cccc(N)c3)[C@H](Cc3ccccc3)[C@H](O)[C@@H](O)[C@H]2Cc2ccccc2)c1 [Compound E, [4R-(4α, 5α, 6β, 7β]-1,3-bis (3-aminophenylmethyl]hexahydro-5,6-dihydroxy-4,7-bis (phenlymethyl-2H-1,3-diazepin-2-one dimethylsulfonate] | – | – | only small changes | – | – | HIV Replication (Day 4), p24 (HIV-1 (RF strain) [2]; 100 nM): 25000 pg/mL; Infectious Centers (Day 8), p24 (HIV-1 (RF strain) [4]; 100 nM): 350000 pg/mL |
| NC(=O)NO [hydroxyurea] | – | – | – | – | – | inhibition of PBMC cell division (PBMC): 3 fold |
